Results published in US20170304386A1, “METHOD FOR INHIBITING SURVIVAL, TUMORIGENESIS AND METASTASIS OF CANCER CELLS AND/OR CANCER STEM CELLS” (priority 2014, published 2017).
“Also recorded” adds a separate entry of the source. Residues, ends and D or L forms follow the SMILES beside them. *: point of attachment. Cbz = O=C(OCc1ccccc1)*

Key:
Format in all cases: cell-based, human
[1] = tested on: A549 cells; assay: Wound healing assay; details: PMA 100 nM, 1,10-phenanthroline 20 μM
Description: (§1) Knockdown of ADAMS or ADAM10 inhibited shedding of Collagen XVII and reduced laminin-5 expression in A549 cells cultured in spheroid culture.
An in vitro model of the ability of A549 and CL1-1 lung cancer cells to migrate in a monolayer culture was used to measure wound healing ability. Lung cancer cells were seeded into 6-well plates and incubated overnight. The cells were disrupted by scraping them with a […] pipette tip. […] The percent of wounded area filled was calculated as follows: [(mean wound width-mean remaining width)/mean wound width]×100(%).

[2] = tested on: A549 cells; assay: Invasion assay (Matrigel Invasion Chambers); details: PMA 100 nM, 1,10-phenanthroline 20 μM
Description: as §1
Cell invasion assays were performed using 24-well BD Biocoat Matrigel Invasion Chambers (Becton, Dickinson and Company, San Jose, Calif.) according to the manufacturer's instructions. In brief, cells were seeded into upper inserts (2.5×10^4 cells/insert) in DMEM supplemented with 0.1% bovine serum albumin (BSA). Outer wells were filled with DMEM containing 10% FBS as the chemoattractant. After 24 hours of incubation, the membranes with invaded cells were stained with Giemsa (Sigma), washed and mounted on slides. The entire membrane with invading cells was counted by light microscopy. Data are expressed as the number of invaded cells/well. Each assay was performed in triplicate and repeated at least twice.

[3] = tested on: Col XVII; assay: Immunoblot of Col XVII shedding in A549 spheroid culture; details: A549 spheroid culture 12 days; PMA 100 nM, 1,10-phenanthroline 20 μM
Description: as §1
The lung cancer cell lines A549 and CL1-1 were obtained from the American Type Culture Collection. Cells were grown in Dulbecco's Modified Eagle Medium (DMEM) (Gibco, Grand Island, N.Y.) containing 10 units/ml penicillin, 10 μg/ml streptomycin, 2 mM glutamine, and 10% fetal bovine serum (FBS; Gibco), in a 37° C. humidified atmosphere with 5% CO2. For enrichment of cancer stem-like cells (CSCs) in spheroid culture, lung cancer cells were suspended in tumor sphere medium consisting of serum-free DMEM/F12 (Gibco), N2 supplement (Gibco), human recombinant epidermal growth factor (EGF) (20 ng/ml, PeproTech, Rocky Hill, N.J.), and basic fibroblastic growth factor (bFGF) (10 ng/ml, PeproTech). […] Sphere numbers were counted at day 12 of culture. […]
Cell extracts were prepared with M-PER (Pierce, Rockford, Ill.) plus protease inhibitor cocktail (Halt™; Pierce) and protein concentrations were determined using the bicinchoninic acid (BCA) assay (Pierce). […] Membranes were then probed with the indicated primary antibodies, reacted with the corresponding secondary antibodies, and results detected using a chemiluminescence assay (Millipore, Billerica, Mass.). […]

[4] = tested on: A549 cells; assay: Migration assay (Boyden chambers); details: PMA 100 nM, 1,10-phenanthroline 20 μM
Description: as §1
Cell migration assay was performed using Boyden chambers. At the end of the assay, cells in the upper chamber and on the upper filter surface were removed, whereas cells on the lower filter surface were fixed with ethanol and stained with Giemsa (Sigma-Aldrich). The number of migrating cells was determined by counting cells in 10 random fields/filter at 200× magnification. Data were calculated as a percentage of migrated cells in the absence of chemoattractant or adherent culture, which was considered as 100%. All experiments were performed in triplicate.

[5] = tested on: laminin-5; assay: Western blot of laminin-5 level and degradation in A549 spheroid culture; details: for level of laminin 5: A549 spheroid culture 12 days, PMA 100 nM, 1,10-phenanthroline 20 μM; for laminin 5 protein half-life / degradation: A549 suspension cells, spheroid medium containing cycloheximide 50 μg/ml
Description: as §1
(§2) The lung cancer cell lines A549 and CL1-1 were obtained from the American Type Culture Collection. Cells were grown in Dulbecco's Modified Eagle Medium (DMEM) (Gibco, Grand Island, N.Y.) containing 10 units/ml penicillin, 10 μg/ml streptomycin, 2 mM glutamine, and 10% fetal bovine serum (FBS; Gibco), in a 37° C. humidified atmosphere with 5% CO2. For enrichment of cancer stem-like cells (CSCs) in spheroid culture, lung cancer cells were suspended in tumor sphere medium consisting of serum-free DMEM/F12 (Gibco), N2 supplement (Gibco), human recombinant epidermal growth factor (EGF) (20 ng/ml, PeproTech, Rocky Hill, N.J.), and basic fibroblastic growth factor (bFGF) (10 ng/ml, PeproTech). Cell colonies >100 μm in diameter and >50% in area showing 3-dimensional structure and blurred cell margins were defined as spheres. Sphere numbers were counted at day 12 of culture. Cells were harvested and protein lysates were collected for further experiments. Treatment reagents included FAK inhibitor (20 μM) (Calbiochem, San Diego, Calif.; Merk, Schwalbach, Germany), LY294002 (10 μM) (Calbiochem), 1,10-phenanthroline (20 μM) (Sigma-Aldrich; St. Louis, Mo.), PMA (100 nM) (Sigma-Aldrich) and Cyclohexamide (50 μg/ml) (Calbiochem).
(§3) Cell extracts were prepared with M-PER (Pierce, Rockford, Ill.) plus protease inhibitor cocktail (Halt™; Pierce) and protein concentrations were determined using the bicinchoninic acid (BCA) assay (Pierce). Aliquots of protein lysates were separated on SDS-10% polyacrylamide gels and transferred to PVDF membrane filters, followed by blocking with 5% blotting grade milk (Bio-Rad, Hercules, Calif.) in TBST (20 mM Tris-HCl [pH 7.6], 137 mM NaCl, 1% Tween 20). Membranes were then probed with the indicated primary antibodies, reacted with the corresponding secondary antibodies, and results detected using a chemiluminescence assay (Millipore, Billerica, Mass.). Membranes were exposed to X-ray film to visualize the bands (Amersham Pharmacia Biotech, Piscataway, N.J.).

[6] = tested on: EMT markers; assay: Western blot of Snail and EMT markers in A549 spheroid culture; details: PMA 100 nM, 1,10-phenanthroline 20 μM
Description: as §1, §2, §3

[7] = tested on: laminin 5; assay: Western blot of laminin 5 protein with cycloheximide with or without MG132; details: TICs with Col17a1 knockdown; 50 μg/ml cycloheximide; 10 μM MG132; 6, 12, 24, 36 hours
Description: FIGS. 5a-5k show the Col XVII-mediated suspension survival ability depends on laminin 5 and FAK activation. FIGS. 5a and 5b show the Bulk cancer cells (Bulk) and spheroid culture-enriched TICs (SPH) were cultured in spheroid condition for 10 h, followed by FIG. 5a (western blot assay), and FIG. 5b (immunofluorescence) followed by examination with a confocal microscope. […] FIGS. 5e-5f show the spheroid cultures of cells overexpressed with control shRNAs (CTR) or different Col17a1 shRNAs, si(1) and si(2) were assayed for mRNA and protein levels (FIG. 5e), and immunostaining (CCS)(FIG. 5f) followed by examination with a confocal microscope. FIG. 5g (top), western blot analysis for spheroid culture-enriched TICs expressing control shRNAs (CTR) or Col17a1 shRNAs, si(1) or si(2), treated with 50 μg/ml cycloheximide in the presence or absence of 10 μM MG132 for 6, 12, 24, and 36 hours. FIG. 5g (bottom), graphical representation of the relative band intensities of laminin 5 protein. […]
Cells were lysed and protein was extracted using M-PER (Pierce, Rockford, Ill.) plus protease inhibitor cocktail (Pierce), and the protein concentrations were determined by the BCA assay (Pierce). […] The membrane was then hybridized with primary antibodies followed by corresponding secondary antibodies, and then detected using a chemiluminescence assay (Millipore, Billerica, Mass.). […]

[8] = tested on: S727 phosphorylation of STAT3; assay: Western blot analysis of STAT3 S727 phosphorylation in CCS cells
Description: FIGS. 7a-7m show the PP2A regulates STAT3 activation at S727 and mediates suspension survival ability in TICs. […] The results are expressed as mean±SD of three independent experiments. Asterisks indicate significant differences determined by student's t-test. Bar=20 μm.
Cells were lysed and protein was extracted using M-PER (Pierce, Rockford, Ill.) plus protease inhibitor cocktail (Pierce), and the protein concentrations were determined by the BCA assay (Pierce). Aliquots of protein lysates were separated on SDS-10% polyacrylamide gels and transferred onto poly-vinylidenedifluoride (PVDF) membrane, which was blocked with 5% milk (Bio-Rad, Richmond, Calif.) in TBST. The membrane was then hybridized with primary antibodies followed by corresponding secondary antibodies, and then detected using a chemiluminescence assay (Millipore, Billerica, Mass.). Membranes were exposed to X-ray film to visualize the bands (Amersham Pharmacia Biotech, Piscataway, N.J.). Antibodies against pSTAT3 (S727) (1:1000), pSTAT3 (Y705) (1:1000), STAT3 (1:2000), PP2A C subunit (1:2000), pAkt (S473) (1:1000), β-tubulin (1:2000), Flag (1:2000), pAkt (T308) (1:1000), Akt (1:2000), ERK (1:2000), pP38 (T180 and Y182) (1:1000), P38 (1:2000), pJNK (1:1000), and pmTOR (S2448) (1:1000) were purchased from Cell Signaling Technologies. Antibodies against pPP2A (Y307) (1:2000), Oct4 (1:500), Nanog (1:500), Histone H1 (1:1000), and Sox2 (1:500) were purchased from Santa Cruz Biotechnology Inc. Antibodies against pFAK (Y397) (1:1000) were purchased from GeneTex (San Antonio, Tex.). Antibody against Col17a1 was purchased from Abcam. Antibody against Laminin y2 (1:1000) was purchased from Chemicon (Temecula, Calif.). Antibody against cleaved-caspase 3 (1:1000) was purchased from Epitomics (Burlingame, Calif.). Antibody against pERK (1:1000) was purchased from Biosource (Camerillo, Calif.).

[9] = tested on: spheres formed by HT29 spheroid culture; assay: Live/Dead analysis of spheres pre-treated with enzymes, then suspension culture; details: pre-treatment of spheres with enzyme, then suspension culture 24 hours
[10] = CCS bulk cancer cells, 0, 0.1, 0.5, 1 nM OA for 1 hour or 0, 5, 10, 15 nM CA for 30 min

Compound: c1cnc2c(c1)ccc1cccnc12 [1,10-phenanthroline]
- wound closure [1]: reduced
- invasion [2]: reduced
- shedding of COL XVII [3]: decreased
- cell migration [4]: reduced
- level of laminin 5 [5]: negatively
- laminin 5 protein half-life / degradation [5]: degraded faster
- EMT markers [6]: reduced
- expression of Snail [6]: reduced
- expression of epithelial marker E-cadherin [6]: increased
- expression of mesenchymal markers [6]: decreased

Compound: CC(C)C[C@@H](C=O)NC(=O)[C@H](CC(C)C)NC(=O)[C@H](CC(C)C)NC(=O)OCc1ccccc1 [MG132] (Cbz-Leu-Leu-Leu-aldehyde)
- laminin 5 protein level [7]: restored

Compound: CCCCCCCCCCCCCC(=O)O[C@@H]1[C@@H](C)[C@@]2(O)[C@@H](C=C(CO)C[C@]3(O)C(=O)C(C)=C[C@@H]23)[C@@H]2C(C)(C)[C@]12OC(C)=O [PMA]
- wound closure [1]: enhanced
- invasion [2]: enhanced
- shedding of COL XVII [3]: increased; also recorded: stimulated
- cell migration [4]: enhanced
- level of laminin 5 [5]: positively; also recorded: enhanced
- laminin 5 protein half-life / degradation [5]: longer half-life; also recorded: decreased degradation
- EMT markers [6]: activated
- expression of Snail [6]: enhanced
- expression of epithelial marker E-cadherin [6]: decreased
- expression of mesenchymal markers [6]: increased

Compound: COC[C@@H]([C@H](O)[C@H](O)C(=O)NCC[C@H](C)c1nc(/C=C/C[C@@H]2O[C@]3(C[C@@H](O)[C@@H]2C)O[C@H]([C@H](C[C@H](O)[C@H](C)[C@H](O)[C@H](C)/C=C(C)/C(C)=C/C=C/C(C)=C\C#N)OC)[C@H](OP(=O)(O)O)C3(C)C)co1)N(C)C [calyculin A]
- S727 phosphorylation of STAT3 [8, 10]: increased S727 phosphorylation of STAT3 in a dose-dependent manner

Compound: CCCCCCCCCCCCCC=CC(O)C(CO)NC(=O)CCCCC (stereo not shown) [ceramide C6]
- S727 phosphorylation of STAT3 ([8]; CCS spheroid culture-enriched TICs, 50 nM ceramide C6 for 24 hours): reduced S727 phosphorylation of STAT3

Compound: C=C1[C@@H](O)[C@@H]2O[C@]3(CC[C@H](/C=C/[C@@H](C)[C@@H]4CC(C)=C[C@@]5(O[C@H](C[C@@](C)(O)C(=O)O)CC[C@H]5O)O4)O3)CC[C@H]2O[C@@H]1[C@@H](O)C[C@H](C)[C@H]1O[C@@]2(CCCCO2)CC[C@H]1C [okadaic acid]
- S727 phosphorylation of STAT3 [8, 10]: increased S727 phosphorylation of STAT3 in a dose-dependent manner

Compound: chymotrypsin
- cell death in suspension culture (Live/Dead analysis) [9]: cause cell death
